The source made the active and inactive calls. Cut-off read from the data, not from the text of the source, for most assays here: actives have a measured EC50 and inactives only a lower limit.

Our source for the IC50, EC50 and AC50 values is ChEMBL document CHEMBL1201862, “PubChem BioAssay data set” (2004).

Experiment [1] concerns the target T1, Calpain-2 catalytic subunit (Sus scrofa, UniProt P43367).
T1 sequence (P43367 whole entry): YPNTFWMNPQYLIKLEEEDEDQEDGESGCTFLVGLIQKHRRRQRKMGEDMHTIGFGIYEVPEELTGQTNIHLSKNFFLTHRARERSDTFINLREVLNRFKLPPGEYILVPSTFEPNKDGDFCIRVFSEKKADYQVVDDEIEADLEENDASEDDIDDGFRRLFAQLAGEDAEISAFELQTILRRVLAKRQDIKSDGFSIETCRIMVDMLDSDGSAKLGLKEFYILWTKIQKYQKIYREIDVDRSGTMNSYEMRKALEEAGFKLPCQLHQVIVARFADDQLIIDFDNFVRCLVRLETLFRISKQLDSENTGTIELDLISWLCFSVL
The experiment in a line: m-calpain protease blockers, concentration series – biochemical, fluorogenic peptide substrate, dose response (AID 1420). The experiment is classed as functional.

The nature of experiment [2]: Trypanosoma cruzi growth suppression in host cells – NIH3T3 host cells, beta-gal luminescence, confirmation (AID 2044).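 Note: intracellular parasites grown in NIH/3T3 mouse fibroblasts as host cells; luminescent beta-galactosidase reporter signal from transgenic T. cruzi replicating inside host cells; inhibitors lower the luminescence signal.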 The class given is functional, cell-based.
Experiment [3] is described as follows: NIH3T3 cell viability loss – ATP luminescence, mouse fibroblasts, counter-screen, dose response (AID 2010).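 Note: cells exposed to compound for about 90 hours before reading.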 The experiment is classed as functional, cell-based.
Experiment [4] deals with T2, Heat shock factor protein 1 (Mus musculus, UniProt P38532).
T2 sequence (P38532 whole entry): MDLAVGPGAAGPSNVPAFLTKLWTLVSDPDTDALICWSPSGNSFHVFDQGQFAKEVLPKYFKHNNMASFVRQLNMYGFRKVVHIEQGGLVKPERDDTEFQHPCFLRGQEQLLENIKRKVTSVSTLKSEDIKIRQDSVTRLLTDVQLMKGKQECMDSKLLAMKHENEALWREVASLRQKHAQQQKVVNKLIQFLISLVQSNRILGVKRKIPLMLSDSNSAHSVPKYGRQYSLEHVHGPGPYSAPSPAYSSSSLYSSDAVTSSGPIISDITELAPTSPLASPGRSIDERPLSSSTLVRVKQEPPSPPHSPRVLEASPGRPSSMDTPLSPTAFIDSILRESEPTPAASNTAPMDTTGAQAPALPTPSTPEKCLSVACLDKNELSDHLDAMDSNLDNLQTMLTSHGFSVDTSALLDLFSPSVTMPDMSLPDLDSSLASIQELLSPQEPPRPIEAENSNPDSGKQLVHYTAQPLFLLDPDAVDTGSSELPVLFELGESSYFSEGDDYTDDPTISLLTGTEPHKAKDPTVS
Put plainly: decrease of HSF1-responsive luciferase luminescence – cell-based, NIH3T3, dose retest, confirmation (AID 2382).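 Note: NIH3T3 fibroblasts with HSF1-driven luciferase reporter stressed by proteasome inhibitor MG132; luminescence from HSF1-driven luciferase expression after 8 hours of MG132 stress.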 The experiment is classed as functional.

Experiment [5] has as its target T3, Cytochrome P450 1A2 (Homo sapiens, UniProt P05177).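 Note: PubChem cytochrome P450 panel assay, CYP1A2 panel member.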
T3 sequence (P05177 whole entry): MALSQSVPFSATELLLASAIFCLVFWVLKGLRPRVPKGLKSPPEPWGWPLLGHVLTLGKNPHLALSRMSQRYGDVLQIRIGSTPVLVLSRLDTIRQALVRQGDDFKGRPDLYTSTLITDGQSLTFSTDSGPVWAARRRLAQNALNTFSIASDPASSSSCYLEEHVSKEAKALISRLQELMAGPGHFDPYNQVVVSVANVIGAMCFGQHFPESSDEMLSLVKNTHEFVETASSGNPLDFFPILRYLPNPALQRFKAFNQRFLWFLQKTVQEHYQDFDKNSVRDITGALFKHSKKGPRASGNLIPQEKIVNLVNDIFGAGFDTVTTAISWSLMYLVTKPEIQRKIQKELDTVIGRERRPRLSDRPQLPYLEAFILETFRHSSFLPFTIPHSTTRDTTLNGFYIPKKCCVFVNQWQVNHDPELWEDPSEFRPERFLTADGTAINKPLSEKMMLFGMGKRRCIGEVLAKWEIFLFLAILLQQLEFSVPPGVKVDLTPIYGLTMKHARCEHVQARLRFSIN

Experiment [6] has as its target Cytochrome P450 3A4 (Homo sapiens, UniProt P08684).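 Note: CYP3A4 tested as one member of a cytochrome P450 panel screen.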
Experiment [7] in a line: Luminescence Cell-Based Dose Response HTS to Identify Inhibitors of 5'UTR Stem-Loop Driven Prion Protein mRNA Translation in H4 Neuroglioblastoma Cells. [Related pubchem assays: 1827 (Project Summary), 1813 (Primary HTS)]. The class given is functional.
Experiment [8] is described as follows: luciferase reporter signal suppression in cells – H4 neuroglioma cells, luminescence, dose response (AID 1990). The experiment is classed as functional, cell-based.
The nature of experiment [9]: alpha-synuclein stem-loop luciferase translation blockers – H4 neuroglioma cells, luminescence, confirmation (AID 1988). The experiment is classed as functional, cell-based.

Chain of Cytochrome P450 3A4 (P08684 whole entry): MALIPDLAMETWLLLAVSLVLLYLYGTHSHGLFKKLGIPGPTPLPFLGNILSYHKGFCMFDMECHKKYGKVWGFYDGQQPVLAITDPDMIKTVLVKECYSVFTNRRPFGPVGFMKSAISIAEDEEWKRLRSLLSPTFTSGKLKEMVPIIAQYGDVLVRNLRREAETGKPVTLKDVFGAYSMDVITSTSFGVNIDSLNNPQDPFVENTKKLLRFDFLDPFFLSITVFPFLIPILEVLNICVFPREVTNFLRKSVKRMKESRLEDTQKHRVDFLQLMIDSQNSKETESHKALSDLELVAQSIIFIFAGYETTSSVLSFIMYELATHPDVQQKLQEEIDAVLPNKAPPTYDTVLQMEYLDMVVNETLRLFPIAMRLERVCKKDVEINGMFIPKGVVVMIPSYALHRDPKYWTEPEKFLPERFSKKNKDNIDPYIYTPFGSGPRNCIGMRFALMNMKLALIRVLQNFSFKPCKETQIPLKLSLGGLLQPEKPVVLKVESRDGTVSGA

As to `Cc1cccc(NC(=O)c2cc3c(=O)n4ccccc4nc3n(CC(C)C)c2=N)c1`, the IC50 in experiment [1] is > 50 µM (not active).

Consider `CCOC(=O)Cn1c(=O)cc(C)c2cccc(C)c21`, for which the 50% inhibitory concentration (IC50) in experiment [1] is < 0.4 µM (not active). `Cc1ccc2c(N)c(C(=O)N(c3ccccc3)c3ccccc3)sc2n1`: the 50% effective concentration (EC50) in experiment [2] was 1.3 µM (active); in [3] it was > 60 µM (not active); in experiment [4], > 195 µM (not active). Take `CC1(C)C=C(c2ccc(C=O)s2)CC(C)(C)N1C=O`: the EC50 in experiment [4] is > 195 µM (not active). In the case of `CCOC(=O)c1c(C)[nH]c(C2=NN=C(Nc3cccc(Cl)c3)SC2)c1C`, the EC50 in [4] was 25.3 µM (active). With `Cc1ccc(NS(=O)(=O)c2cc(C(=O)NCCSC3CCCCC3)ccc2C)cc1`, the IC50 in [1] is reported as > 50 µM (not active).

As for `S=C(c1ccc(N2CCCC2)cc1)N1CCCCC1`, in experiment [1], the IC50 was 12.1 µM (active).

Regarding `CC(C)CC(=O)NC(NC(=O)CC(C)C)c1cccc([N+](=O)[O-])c1`, the EC50 in experiment [4] is > 195 µM (not active).

As for `C#CCSc1nnc(-c2sc3ccccc3c2Cl)o1`, the AC50 in [5] is 0.126 µM (inconclusive); in [6], 8.91 µM (inconclusive). Also, the IC50 in experiment [1] is given as > 50 µM (not active). Consider `C/C=C/Cn1c(Br)nc2c1c(=O)n(C)c(=O)n2C`, for which the EC50 is > 120 µM (not active) in experiment [7], > 120 µM (not active) in experiment [8] and 59.3 µM (active) in experiment [9].

As to `CC(C)(C)OC(=O)C1C(=O)CC(C)(O)C(C(=O)OC(C)(C)C)C1c1cccnc1` (configuration not stated), the concentration for a half-maximal effect (EC50) in experiment [4] was > 195 µM (not active). On to `O=c1ccc2ccc(Oc3ccc(Cl)cc3[N+](=O)[O-])cc2o1`, for which the IC50 in experiment [1] is < 0.4 µM (not active). As to `COc1ccc(CN(Cc2cc3cc4c(cc3nc2O)OCO4)C(=O)NC2CCCCC2)cc1`, the EC50 in experiment [7] is > 120 µM (not active); in experiment [8] it was 17.8 µM (active); in [9] it was > 120 µM (not active). Consider `CC(O)c1nc2ccccc2n1Cc1nnc(-c2ccc(Cl)cc2)o1` (configuration not stated), for which the EC50 in experiment [4] was > 195 µM (not active). Turning to `Fc1ccc(Cc2nnc(-c3cccs3)o2)cc1`, in [4], the EC50 was > 195 µM (not active).

In the case of `Cc1cccc(NC(=O)CSc2nnc(CNC(=O)c3cccs3)o2)c1C`, the IC50 in [1] is on record as 7.44 µM (not active).

Take `CC(=O)Nc1ccc(NC(=O)CN(c2ccc(C(C)C)cc2)S(=O)(=O)c2ccccc2)cc1`: the EC50 in [7], in experiment [8] and in experiment [9] was > 120 µM (not active) throughout.

`O=C(NCCc1ccccn1)c1ccc(OC(F)F)cc1`: the IC50 in experiment [1] is < 0.4 µM (not active). Regarding `CCOc1ccc(NC(=O)CN(C)C(=O)c2ccc(N3CCCC3)c([N+](=O)[O-])c2)cc1OCC`, the EC50 in experiment [4] is > 195 µM (not active). Consider `COc1ccc(-c2noc(N3CCC(C(=O)NCCCN4CC(C)CC(C)C4)CC3)n2)cc1` (configuration not stated), for which the EC50 in [4] is recorded as > 195 µM (not active). Consider `S=C(Nc1ccccc1Oc1ccccc1)Nc1cccc(Cl)c1Cl`, for which the IC50 in [1] was 12.7 µM (not active). Regarding `COC(=O)Nc1sccc1C(=O)Nc1sccc1C(=O)OC`, in experiment [4], the EC50 is > 195 µM (not active). On to `CC(=C/C(=O)O)/C(=C/c1ccccc1)C(=O)O`, for which, in experiment [1], the IC50 is < 0.4 µM (not active). As to `Cc1[nH]n(-c2ccccc2)c(=O)c1N=Nc1ccc2c(c1)OCO2`, in experiment [4], the EC50 is listed as > 195 µM (not active). With `CC/N=C1\S/C(=C\c2ccc(Sc3ccc(Cl)cc3)o2)C(=O)N1CC`, the figures for the EC50 in experiment [7], in [8] and in [9] were > 120 µM (not active), 21.4 µM (active) and > 120 µM (not active), respectively.
